Some results are limits rather than exact numbers.

Usually IC50 stands for the concentration at which inhibition is half-maximal. High values mean a need for much substance, low ones inhibition by little substance.

The nature of series [1]: Cytotoxicity against dog AX4 cells at 0.064 to 1000 uM incubated for 24 hrs by cell counting analysis. Type of series: cell-based, Canis lupus familiaris. The note with it: ax4, 24 h.
In series [2] the test system is Influenza A virus. Description: Antiviral activity against Influenza A virus (A/mallard/Hokkaido/24/2009(H5N1)) infected in MDCK cells preincubated for 1 hr followed by infection measured after 19 to 20 hrs by galactosidase-based fluorescence assay and peroxidase-based chromogenic assay. Format: functional, organism-based.
The target of series [3] is T1, Sialidase-4 (Homo sapiens, UniProt Q8WWR8).
T1 sequence (Q8WWR8 whole entry): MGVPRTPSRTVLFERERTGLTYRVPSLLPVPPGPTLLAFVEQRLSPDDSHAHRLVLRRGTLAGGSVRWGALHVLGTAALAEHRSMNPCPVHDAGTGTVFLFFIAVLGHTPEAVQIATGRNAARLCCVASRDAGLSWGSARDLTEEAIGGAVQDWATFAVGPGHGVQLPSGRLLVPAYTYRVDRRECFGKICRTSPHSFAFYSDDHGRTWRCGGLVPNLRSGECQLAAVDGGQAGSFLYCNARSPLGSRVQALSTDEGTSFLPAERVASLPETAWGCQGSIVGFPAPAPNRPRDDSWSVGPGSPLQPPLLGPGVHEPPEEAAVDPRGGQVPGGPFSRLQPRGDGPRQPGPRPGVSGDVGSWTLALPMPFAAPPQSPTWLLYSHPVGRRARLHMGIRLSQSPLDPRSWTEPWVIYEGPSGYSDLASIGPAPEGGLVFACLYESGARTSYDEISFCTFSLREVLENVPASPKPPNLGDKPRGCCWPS
As to the kind of experiment: Inhibition of human Neu4 expressed in HEK293T cells using GM3 as substrate incubated for 30 mins by HPLC analysis. Format: cell-based, HEK-293T.

The target in the next series is T2, Sialidase-3 (Homo sapiens, UniProt Q9UQ49).
T2 sequence (Q9UQ49 whole entry): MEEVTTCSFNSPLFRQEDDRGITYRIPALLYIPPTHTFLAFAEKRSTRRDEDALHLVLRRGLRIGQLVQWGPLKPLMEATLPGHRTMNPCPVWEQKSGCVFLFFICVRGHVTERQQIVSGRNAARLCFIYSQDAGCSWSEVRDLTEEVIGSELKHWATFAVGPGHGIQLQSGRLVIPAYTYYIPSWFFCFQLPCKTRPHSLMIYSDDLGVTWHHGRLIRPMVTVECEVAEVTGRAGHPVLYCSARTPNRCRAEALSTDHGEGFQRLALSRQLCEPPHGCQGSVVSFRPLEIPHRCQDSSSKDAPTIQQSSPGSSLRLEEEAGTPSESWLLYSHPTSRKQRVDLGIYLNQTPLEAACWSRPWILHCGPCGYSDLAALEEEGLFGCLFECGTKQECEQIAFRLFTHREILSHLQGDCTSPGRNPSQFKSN
As to the kind of experiment: Inhibition of human Neu3 expressed in HEK293T cells using GM3 as substrate incubated for 30 mins by HPLC analysis. Format: cell-based, HEK-293T.

The test system of a further series is MDCK. As to the kind of experiment: Cytotoxicity against MDCK cells at 0.064 to 1000 uM incubated for 24 hrs by cell counting analysis. Format: cell-based, Canis lupus familiaris. The note with it: dog.
In series [4] the test system is Influenza A virus. Description: Antiviral activity against Influenza A virus (A/duck/Tsukuba/28/2006(H3N8)) infected in MDCK cells preincubated for 1 hr followed by infection measured after 19 to 20 hrs by galactosidase-based fluorescence assay and peroxidase-based chromogenic assay. Format: functional, organism-based.
In series [5] the test system is Influenza A virus. Description: Antiviral activity against Influenza A virus (A/duck/Shiga/8/2004(H4N6)) infected in MDCK cells preincubated for 1 hr followed by infection measured after 19 to 20 hrs by galactosidase-based fluorescence assay and peroxidase-based chromogenic assay. Format: functional, organism-based.
For series [6], the system named is Influenza A virus. As to the kind of experiment: Antiviral activity against Influenza A virus (A/duck/Tsukuba/394/2005(H5N3)) infected in MDCK cells preincubated for 1 hr followed by infection measured after 19 to 20 hrs by galactosidase-based fluorescence assay and peroxidase-based chromogenic assay. Format: functional, organism-based.
In series [7] the test system is Influenza A virus. As to the kind of experiment: Antiviral activity against Influenza A virus (A/duck/Tsukuba/20/2007(H8N4)) infected in MDCK cells preincubated for 1 hr followed by infection measured after 19 to 20 hrs by galactosidase-based fluorescence assay and peroxidase-based chromogenic assay. Format: functional, organism-based.
Series [8] deals with Influenza A virus. As to the kind of experiment: Antiviral activity against Influenza A virus A/Yamaguchi/20/06(H1N1) infected in dog AX4 cells preincubated for 1 hr followed by infection measured after 19 to 20 hrs by galactosidase-based fluorescence assay and peroxidase-based chromogenic assay. Format: functional, organism-based.
For series [9], the system named is Influenza A virus. Description: Antiviral activity against Influenza A virus (A/California/04/2009(H1N1)) infected in dog AX4 cells preincubated for 1 hr followed by infection measured after 19 to 20 hrs by galactosidase-based fluorescence assay and peroxidase-based chromogenic assay. Format: functional, organism-based.
For series [10], the system named is Influenza A virus. As to the kind of experiment: Antiviral activity against Influenza A virus A/duck/Chiba/13/06(H12N5) infected in MDCK cells preincubated for 1 hr followed by infection measured after 19 to 20 hrs by galactosidase-based fluorescence assay and peroxidase-based chromogenic assay. Format: functional, organism-based.
For series [11], the system named is Influenza A virus. As to the kind of experiment: Antiviral activity against Influenza A virus (A/duck/Tsukuba/700/2007(H7N7)) infected in MDCK cells preincubated for 1 hr followed by infection measured after 19 to 20 hrs by galactosidase-based fluorescence assay and peroxidase-based chromogenic assay. Type of series: functional, organism-based.
Series [12] addresses T1, Sialidase-4. As to the kind of experiment: Inhibition of human Neu4 expressed in HEK293T cells using 4MU-Neu5Ac as substrate incubated for 30 mins by HPLC analysis. Format: cell-based, HEK-293T.
A further series addresses Sialidase-1 (Homo sapiens, UniProt Q99519). As to the kind of experiment: Inhibition of human Neu1 expressed in HEK293T cells using 4MU-Neu5Ac as substrate incubated for 30 mins by HPLC analysis. Format: cell-based, HEK-293T.
Series [13] deals with Influenza A virus. Description: Antiviral activity against Influenza A virus (A/Narita/1/2009(H1N1)) infected in dog AX4 cells preincubated for 1 hr followed by infection measured after 19 to 20 hrs by galactosidase-based fluorescence assay and peroxidase-based chromogenic assay. Type of series: functional, organism-based.
Series [14] deals with Influenza A virus. Description: Antiviral activity against Influenza A virus (A/Aichi/102/2008(H3N2)) infected in dog AX4 cells preincubated for 1 hr followed by infection measured after 19 to 20 hrs by galactosidase-based fluorescence assay and peroxidase-based chromogenic assay. Format: functional, organism-based.
Series [15] concerns Influenza A virus. As to the kind of experiment: Antiviral activity against Influenza A virus (A/duck/Tsukuba/67/2005(H1N1)) infected in MDCK cells preincubated for 1 hr followed by infection measured after 19 to 20 hrs by galactosidase-based fluorescence assay and peroxidase-based chromogenic assay. Format: functional, organism-based.
The subject of series [16] is Influenza A virus. As to the kind of experiment: Antiviral activity against Influenza A virus A/Kitakyushu/10/06(H1N1) infected in dog AX4 cells preincubated for 1 hr followed by infection measured after 19 to 20 hrs by galactosidase-based fluorescence assay and peroxidase-based chromogenic assay. Type of series: functional, organism-based.
For series [17], the system named is Influenza A virus. Description: Antiviral activity against Influenza A virus A/duck/Tsukuba/441/05(H11N9) infected in MDCK cells preincubated for 1 hr followed by infection measured after 19 to 20 hrs by galactosidase-based fluorescence assay and peroxidase-based chromogenic assay. Format: functional, organism-based.
Series [18] concerns Influenza A virus. Description: Antiviral activity against Influenza A virus (A/Aichi/75/2008(H3N2)) infected in dog AX4 cells preincubated for 1 hr followed by infection measured after 19 to 20 hrs by galactosidase-based fluorescence assay and peroxidase-based chromogenic assay. Type of series: functional, organism-based.
For series [19], the system named is Influenza A virus. Description: Antiviral activity against Influenza A virus (A/duck/Tsukuba/28/2005(H6N2)) infected in MDCK cells preincubated for 1 hr followed by infection measured after 19 to 20 hrs by galactosidase-based fluorescence assay and peroxidase-based chromogenic assay. Format: functional, organism-based.
Series [20] deals with T3, Neuraminidase (Influenza A virus, UniProt B4URF0). As to the kind of experiment: Inhibition of Influenza A virus (A/duck/Tsukuba/28/2005(H6N2)) neuraminidase N2 activity using 4MU-Neu5Ac as substrate preincubated for 15 mins followed by substrate addition measured after 15 mins by fluorescence analysis.
Series [21] addresses T3, Neuraminidase. Description: Inhibition of Influenza A virus (A/duck/Tsukuba/67/2005(H1N1)) neuraminidase N1 activity using 4MU-Neu5Ac as substrate preincubated for 15 mins followed by substrate addition measured after 15 mins by fluorescence analysis.
Series [22] addresses T3, Neuraminidase. As to the kind of experiment: Inhibition of Influenza A virus (A/duck/Tsukuba/394/2005(H5N3)) neuraminidase N3 activity using 4MU-Neu5Ac as substrate preincubated for 15 mins followed by substrate addition measured after 15 mins by fluorescence analysis.

T3 sequence (B4URF0 whole entry): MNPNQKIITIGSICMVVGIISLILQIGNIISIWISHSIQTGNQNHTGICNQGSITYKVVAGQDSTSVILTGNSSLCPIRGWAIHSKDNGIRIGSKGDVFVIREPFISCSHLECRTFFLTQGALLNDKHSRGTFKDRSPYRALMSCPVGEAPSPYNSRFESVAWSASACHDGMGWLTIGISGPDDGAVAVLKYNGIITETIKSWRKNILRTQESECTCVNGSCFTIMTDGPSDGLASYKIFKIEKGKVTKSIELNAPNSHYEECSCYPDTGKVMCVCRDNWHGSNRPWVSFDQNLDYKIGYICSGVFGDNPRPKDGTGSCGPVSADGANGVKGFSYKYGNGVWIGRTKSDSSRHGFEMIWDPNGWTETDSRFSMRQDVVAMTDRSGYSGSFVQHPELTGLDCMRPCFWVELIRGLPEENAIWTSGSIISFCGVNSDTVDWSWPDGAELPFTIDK

Take `CCCCC(=O)NC[C@@H](O)[C@@H](O)[C@@H]1OC(C(=O)O)=C[C@H](NC(=N)N)[C@H]1NC(C)=O.O=C(O)C(F)(F)F`: the Activity entry (in series [1]; with MDCK) was “Non-toxic” in each case. Also, the concentration for half-maximal inhibition (IC50) is 8.3 µM in the series on Influenza A virus [2]; above 700 µM on Sialidase-4 [3]; above 1000 µM at Sialidase-3; 47.7 µM in the series on Influenza A virus [4] (Influenza A virus, MDCK); 1.1 µM in the series on Influenza A virus [5]; 5.87 µM with Influenza A virus [6]. For the same molecule, the IC50 is 5.67 µM with Influenza A virus [7]; 0.39 µM with Influenza A virus [8]; 0.136 µM with Influenza A virus [9]; 25.6 µM with Influenza A virus [10]; 5.02 µM in the series on Influenza A virus [11]; above 700 µM against Sialidase-4 [12]. In addition, the IC50 against Sialidase-1 is above 700 µM; with Influenza A virus [13], 0.127 µM; with Influenza A virus [14], 40.2 nM; in the series on Influenza A virus [15], 2.25 µM; in the series on Influenza A virus [16], 0.337 µM; with Influenza A virus [17], 5.5 µM. The half-maximal inhibitory concentration (IC50) with Influenza A virus [18] is 24.7 nM; with Influenza A virus [19], 0.448 µM.

As to `CC(=O)N[C@H]1[C@H]([C@H](O)[C@H](O)CO)OC(C(=O)O)=C[C@@H]1NC(=N)N` [ZANAMIVIR], the IC50 stood at 0.0156 µM with Influenza A virus [2]; 0.0167 µM with Influenza A virus [4] (mdck); 0.0109 µM with Influenza A virus [5]; 0.0119 µM in the series with Influenza A virus [6]; 0.00933 µM in the series on Influenza A virus [7]; 0.0288 µM in the series with Influenza A virus [10]. In addition, the 50% inhibitory concentration (IC50) with Influenza A virus [11] was 0.0584 µM; against Sialidase-1 it was above 1000 µM; with Influenza A virus [15] it was 0.00273 µM; in the series with Influenza A virus [17], 0.065 µM; in the series with Influenza A virus [19] it was 0.0065 µM.

Regarding `CCC(CC)OC[C@@H]1CC(C(=O)O)=C[C@H](N)[C@H]1NC(C)=O`, the IC50 in the series with Influenza A virus [2] came out at 0.0282 µM; in the series on Influenza A virus [4] (Influenza A virus, MDCK) it was 0.00551 µM; in the series on Influenza A virus [5] it was 0.00087 µM; in the series on Influenza A virus [6] it was 0.00228 µM; in the series with Influenza A virus [7] it was 0.005 µM; with Influenza A virus [8], 0.00171 µM. Also, the half-maximal inhibitory concentration (IC50) amounted to 0.0003 µM in the series with Influenza A virus [9]; 0.00364 µM with Influenza A virus [10]; 0.00474 µM with Influenza A virus [11]; 0.00028 µM in the series on Influenza A virus [13]; 0.04 nM in the series on Influenza A virus [14]; 0.00758 µM in the series with Influenza A virus [15]. The half-inhibitory concentration (IC50) in the series with Influenza A virus [16] amounted to 3.91 µM; in the series on Influenza A virus [17], 0.0129 µM; in the series on Influenza A virus [18], 0.07 nM; with Influenza A virus [19], 0.00085 µM.

Turning to `CC(=O)N[C@H]1[C@H]([C@H](O)[C@H](O)CNC(=O)C2CC2)OC(C(=O)O)=C[C@@H]1NC(=N)N.O=C(O)C(F)(F)F`, the Activity result (in series [1]; with MDCK) was “Non-toxic” each time. In addition, the IC50 in the series with Influenza A virus [2] was 0.396 µM; at Sialidase-4 [3], above 1000 µM; against Sialidase-3, above 1000 µM; with Influenza A virus [4] (Influenza A virus, MDCK), 0.163 µM; with Influenza A virus [5], 0.0248 µM; with Influenza A virus [6] it was 0.0382 µM. Besides, the half-inhibitory concentration (IC50) was 0.197 µM in the series on Influenza A virus [7]; 0.0276 µM with Influenza A virus [8]; 0.00604 µM in the series on Influenza A virus [9]; 0.0293 µM in the series on Influenza A virus [10]; 0.276 µM with Influenza A virus [11]; above 1000 µM against Sialidase-4 [12]. In addition, the half-inhibitory concentration (IC50) on Sialidase-1 was above 1000 µM; in the series with Influenza A virus [13], 0.00486 µM; in the series on Influenza A virus [14] it was 1.27 nM; in the series on Influenza A virus [15], 0.049 µM; in the series with Influenza A virus [16] it was 0.106 µM; in the series with Influenza A virus [17], 0.3 µM. Besides, the half-maximal inhibitory concentration (IC50) with Influenza A virus [18] came out at 1.34 nM; in the series with Influenza A virus [19] it was 0.0118 µM.

Consider `CC(=O)N[C@H]1[C@H]([C@H](O)[C@H](O)CO)OC(C(=O)O)=C[C@@H]1O` [NEU5AC2EN], for which the concentration for half-maximal inhibition (IC50) against Sialidase-3 is 50 µM; against Neuraminidase [20] it was 1 µM; at Neuraminidase [21], 1 µM; at Neuraminidase [22], 1 µM.

The values above are taken from ChEMBL document CHEMBL3817735 (J Med Chem, 2016).
